# Patent publication US20230256004A1, “COMPOSITIONS AND METHODS FOR TREATING MOOD DISORDERS AND CIRCADIAN RHYTHM SLEEP DISORDERS” (Light Aqua LLC, priority 2020, published 2023)
# Assays:
# humans [1] = settings: acute treatment; 1% of total body water versus 15% toxic
# mammals = settings: in vivo; cited from earlier work
# [2] = in vivo; cited from earlier work
# humans [3] = settings: cited from earlier work
# fish and tadpoles = settings: cited from earlier work
# [4] = tested on: circadian rest/activity cycle; settings: cited from earlier work
# rats and mice = settings: cited from earlier work
# rest/activity clock = settings: cited from earlier work
# [5] = tested on: Major Depressive Disorder; assay: proposed treatment of Major Depressive Disorder with deuterium oxide/scopolamine solution; format: in vivo, human; settings: Major Depressive Disorder subjects; proposed experiment
# one-celled algae = settings: in vivo; cited from earlier work
compound,measurement,setting,value
[2H]O[2H] [deuterium oxide],estimated Therapeutic Index (ratio of toxic dose to therapeutic dose),humans [1],about 15
same,drinking water concentration of deuterium oxide safe long term,mammals,5%
same,elimination half-life,[2],up to 10 days
same,metabolites,[2],no metabolites
same,concentration in human fluids found not to be toxic over short time periods,"humans [3]; humans, Wallace 1995",≤ 23%
same,acute replacement of total body water with no evident adverse effects,humans [3]; in vivo,15-23%
same,adverse effects,humans [3]; in vivo,no adverse effects
same,adverse effects after one liter,humans [3]; in vivo,severe vertigo with emesis
same,deuterium oxide concentration considered safe long term,humans [3]; in vivo,1%
same,dose at which positional ocular nystagmus was observed,humans [3]; in vivo,25 to 50 mL
same,duration of nystagmus,humans [3]; in vivo,up to 140 minutes
same,harmful effects in babies,humans [3]; in vivo,no observed harmful effects
same,onset of nystagmus post ingestion,humans [3]; in vivo,about 20 minutes
same,onset of vertigo after dose,humans [3]; in vivo,30 min
same,reactions to deuterium oxide,humans [3]; in vivo,short-term vertigo in two of the subjects
same,sensitivity of humans to toxic effects compared to mice,humans [3]; in vivo,roughly 5 times
same,threshold dosage for noticeable side-effects,humans [3]; in vivo,70 to 140 g
same,total body water concentration considered toxic threshold,humans [3]; in vivo,≥ 15%
same,heavy water concentration survived long-term,fish and tadpoles,30%
same,time for chronomutagenic effect to take effect,"[4]; mice, 5% deuterium oxide, Dowse 1972",≤ 24 h
same,increase in period length of the activity rest cycle,"[4]; white mice, maximum 30% deuterium oxide dose administered, Suter and Rawson 1968",≤ 6%
same,body water replacement at which intoxication signs and symptoms occur,rats and mice; in vivo,over 15%
same,deuterium oxide concentration recommended as safe long term,rats and mice; in vivo,5%
same,body water deuterium oxide concentration producing coma and then death,rats and mice; rats and mice,30-35%
same,deuterium oxide concentration at which circadian rhythm began to fluctuate,"rest/activity clock; hamsters, Richter 1977",5%
same,drinking-water deuterium oxide concentration at which rest/activity cycle was freed from entrainment by light/dark,"rest/activity clock; hamsters, Richter 1977",10%
same,slowing of circadian rhythms per 5% deuterium oxide concentration increase in total body water,"rest/activity clock; hamsters, on average, linear response, no lower threshold",about 1%
same,"deuterium oxide concentration at which circadian rhythm began to fluctuate, one hamster","rest/activity clock; one hamster, Richter 1977",1%
same,predicted time for treatment regimen to take effect,[5],≤ 2 days
same,deuterium oxide concentration survived long-term,one-celled algae,100%
